# Experimental data: publication PMC7038073, “Substituted Piperazines as Novel Potential Radioprotective Agents” (Molecules, 2020)
# Assays:
# [1] = WST-1 cytotoxicity test, Jurkat; type: cell-based; settings: human, Jurkat cells, read-out: relative viability (%) compared to untreated control
# Procedure: (§1) In this study, the cytotoxic effects of nine new compounds (2, 3, 4, 5, 6, 7, 8, 9, 10) were tested on 10 human cell lines (nine cancer and one non-cancer cell line). The cell lines were treated with each compound at concentrations of 10 µM and 100 µM for 48 h. The proliferation capacity of the treated cells was determined by WST-1 test and compared against the proliferation rate of the untreated control cells (100%).
# (§2) The cell lines Jurkat, MOLT-4, A2780, A549, HT-29, PANC-1, HeLa, MCF-7, SAOS-2, and MRC-5 (all purchased from Sigma Aldrich, Czech Republic) were included in this study. All cell lines were maintained according to the provider’s guidelines, and plated and treated in 96-well plates (500 to 30 × 10^3 cells per well). The tested compounds 2, 3, 4, 5, 6, 7, 8, 9, and 10 were dissolved in 0.1% DMSO and kept in 10 mM stock solutions. Before use, the stock solution was diluted in culture media at ratios of 1:100 and 1:1000. The studied cell lines were treated with the compounds 2, 3, 4, 5, 6, 7, 8, 9, and 10 at concentrations of 10 and 100 µM for 48 h. Control cells were tested in culture media with and without DMSO (0.1%). The cells were also treated with 1 µM doxorubicin as a cytotoxicity control.
# (§3) The WST-1 (2-(4-iodophenyl)-3-(4-nitrophenyl)-5-(2,4-disulfophenyl)-2H-tetrazolium, monosodium salt) test (Roche, Mannheim, Germany) was used according to the manufacturer’s protocol to determine cell viability in all 10 cell lines 48 h after treatment with the tested compounds. The cells were analyzed in a Tecan Infinite M200 spectrometer (Tecan Group, Männedorf, Switzerland) at 440 nm.
# [2] = WST-1 cytotoxicity test, MOLT-4; type: cell-based; settings: human, MOLT-4 cells, read-out: relative viability (%) compared to untreated control; for viability at 48 h, 10 µM: MOLT-4, 10 µM
# Procedure: as §1, §2, §3
# [3] = WST-1 cytotoxicity test, A549; type: cell-based; settings: human, A549 cells, read-out: relative viability (%) compared to untreated control; for viability at 48 h, 10 µM: A549, 10 µM
# Procedure: as §1, §2, §3
# [4] = WST-1 cytotoxicity test, HT-29; type: cell-based; settings: human, HT-29 cells, read-out: relative viability (%) compared to untreated control; for viability at 48 h, 10 µM: HT-29, 10 µM
# Procedure: as §1, §2, §3
# [5] = WST-1 cytotoxicity test, PANC-1; type: cell-based; settings: human, PANC-1 cells, read-out: relative viability (%) compared to untreated control; for viability at 48 h, 10 µM: PANC-1, 10 µM
# Procedure: as §1, §2, §3
# [6] = WST-1 cytotoxicity test, A2780; type: cell-based; settings: human, A2780 cells, read-out: relative viability (%) compared to untreated control; for viability at 48 h, 10 µM: A2780, 10 µM
# Procedure: as §1, §2, §3
# [7] = WST-1 cytotoxicity test, HeLa; type: cell-based; settings: human, HeLa cells, read-out: relative viability (%) compared to untreated control
# Procedure: as §1, §2, §3
# [8] = WST-1 cytotoxicity test, MCF-7; type: cell-based; settings: human, MCF-7 cells, read-out: relative viability (%) compared to untreated control; for viability at 48 h, 10 µM: MCF-7, 10 µM
# Procedure: as §1, §2, §3
# [9] = WST-1 cytotoxicity test, SAOS-2; type: cell-based; settings: human, SAOS-2 cells, read-out: relative viability (%) compared to untreated control; for viability at 48 h, 10 µM: SAOS-2, 10 µM
# Procedure: as §1, §2, §3
# [10] = WST-1 cytotoxicity test, MRC-5; type: cell-based; settings: human, MRC-5 cells, read-out: relative viability (%) compared to untreated control; for viability at 48 h, 10 µM: MRC-5, 10 µM
# Procedure: as §1, §2, §3
# [11] = WST-1 cytotoxicity test, statements over all cell lines; type: cell-based, human; settings: human, 10 µM, across all the 10 cell lines tested, read-out: percentage of viable cells
# Procedure: as §1, §2, §3
# [12] = test system: 10 human cell lines (nine cancer and one non-cancer cell line); experiment: as above; type: cell-based; settings: 48 h
# Procedure: as §1, §2, §3
# [13] = test system: A549 cells; experiment: MTT assay, IC50 and MTC; settings: for MTC (maximum tolerated concentration): 24 h of treatment; for IC50: Homo sapiens, A549, 24 h, read-out: IC50 ± SEM
# Procedure: In further experiments, MTT (3-(4,5-di-methylthiazol-2-yl)-2,5-diphenyltetrazolium bromide) assay was employed to evaluate the toxicological indexes of the newly synthesized compounds, including IC50 (half-maximal inhibitory concentration) and MTC (maximum tolerated concentration).
# IC50 and MTC were determined through MTT assays. The MTT assay was performed according to [35]. In brief, the A549 cell line was plated in 96-well plates (100 µL, 9 × 10^3 cells per well) and incubated overnight. The tested compounds were prepared in phosphate buffer saline (PBS; Sigma–Aldrich) and serially diluted in DMEM (Dulbecco’s Modified Eagle Medium). An untreated control was included as a viability standard in each plate. After 24 h of treatment, the viability of A549 cells was measured at 570 nm. All experiments were performed in triplicate. The GraphPad Prism statistics software v5.04 (GraphPad Software Inc., San Diego, CA, USA) was used to calculate the IC50 values for parameter nonlinear regression. Values are expressed as mean ± SEM.
# [14] = 48 h, WST-1, mean ± SD of three experiments
# [15] = 100 µM, 48 h, WST-1, mean ± SD of three experiments
# [16] = doxorubicin 1 µM cytotoxicity control, WST-1, mean ± SD
SMILES,"viability at 48 h, 10 µM [1, 14]","viability at 48 h, 10 µM [2, 14]","viability at 48 h, 10 µM [3, 14]","viability at 48 h, 10 µM [4, 14]","viability at 48 h, 10 µM [5, 14]","viability at 48 h, 10 µM [6, 14]","viability at 48 h, 10 µM [7, 14]","viability at 48 h, 10 µM [8, 14]","viability at 48 h, 10 µM [9, 14]","viability at 48 h, 10 µM [10, 14]",melting point,"MTC (maximum tolerated concentration) ([13]; A549 cells, MTT)",IC50 [13],also measured
"COc1ccc2nc3c(c(NCCN4CCNCC4)c2c1)CCCC3.Cl.Cl.Cl [Compound 2, 7-Methoxy-N-(2-(piperazin-1-yl)ethyl)-1,2,3,4-tetrahydroacridin-9-amine trihydrochloride]",31 ± 14%,0%,27 ± 3%,28 ± 6%,39 ± 2%,44 ± 9%,25 ± 1%,15 ± 1%,28 ± 2%,23 ± 2%,172 to 173 °C,0.002 mM,40 ± 2 µM,"viability at 48 h, 10 µM [11]: < 44%; cytotoxic effect (in words) ([12]; 10 µM, tested cell lines): highly cytotoxic"
"COc1ccc2nc3c(c(NCCN4CCN(CCO)CC4)c2c1)CCCC3.Cl.Cl.Cl [Compound 3, 7-Methoxy-N-{2-[4-(2-hydroxyethyl)piperazin-1-yl]ethyl}-1,2,3,4-tetrahydroacridin-9-amine trihydrochloride]",95 ± 9%,81 ± 13%,94 ± 15%,85 ± 11%,78 ± 6%,84 ± 7%,104 ± 13%,84 ± 9%,80 ± 4%,84 ± 2%,157 to 158 °C,0.01 mM,140 ± 10 µM,"viability at 48 h, 100 µM [1, 15]: 12 ± 5%; viability at 48 h, 100 µM ([2]; MOLT-4, 100 µM, 48 h, WST-1, mean ± SD of three experiments): 2%; viability at 48 h, 100 µM ([3]; A549, 100 µM, 48 h, WST-1, mean ± SD of three experiments): 13 ± 2%; viability at 48 h, 100 µM ([4]; HT-29, 100 µM, 48 h, WST-1, mean ± SD of three experiments): 14 ± 5%; viability at 48 h, 100 µM ([5]; PANC-1, 100 µM, 48 h, WST-1, mean ± SD of three experiments): 30 ± 4%; viability at 48 h, 100 µM ([6]; A2780, 100 µM, 48 h, WST-1, mean ± SD of three experiments): 20 ± 5%; viability at 48 h, 100 µM [7, 15]: 11 ± 3%; viability at 48 h, 100 µM ([8]; MCF-7, 100 µM, 48 h, WST-1, mean ± SD of three experiments): 10 ± 2%; viability at 48 h, 100 µM ([9]; SAOS-2, 100 µM, 48 h, WST-1, mean ± SD of three experiments): 10 ± 2%; viability at 48 h, 100 µM ([10]; MRC-5, 100 µM, 48 h, WST-1, mean ± SD of three experiments): 9 ± 6%; decrease of cell viability ([12]; 100 µM, all the tested cell lines): ≥ 70%; cytotoxic effect (in words) ([12]; 100 µM, studied cell lines): highly cytotoxic; IC50 fold higher than that for compound 2 ([13]; A549 cells, MTT): 3.5 fold"
"COc1cccc2c1C(=O)c1c(O)c3c(c(O)c1C2=O)C[C@@](O)(C(=O)CO)C[C@@H]3O[C@H]1C[C@H](N)[C@H](O)[C@H](C)O1 [DOX, doxorubicin, reference compound]",–,–,–,–,–,–,–,–,–,–,–,–,–,"viability at 48 h, 1 µM [1, 16]: 2%; viability at 48 h, 1 µM ([2]; MOLT-4, doxorubicin 1 µM cytotoxicity control, WST-1, mean ± SD): 1%; viability at 48 h, 1 µM ([3]; A549, doxorubicin 1 µM cytotoxicity control, WST-1, mean ± SD): 42 ± 11%; viability at 48 h, 1 µM ([4]; HT-29, doxorubicin 1 µM cytotoxicity control, WST-1, mean ± SD): 55 ± 18%; viability at 48 h, 1 µM ([5]; PANC-1, doxorubicin 1 µM cytotoxicity control, WST-1, mean ± SD): 78 ± 7%; viability at 48 h, 1 µM ([6]; A2780, doxorubicin 1 µM cytotoxicity control, WST-1, mean ± SD): 8 ± 4%; viability at 48 h, 1 µM [7, 16]: 76 ± 12%; viability at 48 h, 1 µM ([8]; MCF-7, doxorubicin 1 µM cytotoxicity control, WST-1, mean ± SD): 32 ± 3%; viability at 48 h, 1 µM ([9]; SAOS-2, doxorubicin 1 µM cytotoxicity control, WST-1, mean ± SD): 22 ± 4%; viability at 48 h, 1 µM ([10]; MRC-5, doxorubicin 1 µM cytotoxicity control, WST-1, mean ± SD): 22 ± 2%"
